Experimental data published in ChEMBL document CHEMBL3044649, “Zn(OTf)2-catalyzed three component, one-pot cyclocondensation reaction of some new octahydroquinazolinone derivatives and access their bio-potential” (2012).
Values after ≈ are worked out from the molar mass of the structure shown.

Key:
Assay type in all cases: functional
Clostridium tetani = test: Antimicrobial activity against Clostridium tetani MTCC 449 after 24 to 48 hr by broth microdilution method
Salmonella typhi = test: Antimicrobial activity against Salmonella enterica subsp. enterica serovar Typhi MTCC 98 after 24 to 48 hr by broth microdilution method
Streptococcus pneumoniae = test: Antimicrobial activity against Streptococcus pneumoniae MTCC 1936 after 24 to 48 hr by broth microdilution method
Escherichia coli = test: Antimicrobial activity against Escherichia coli MTCC 443 after 24 to 48 hr by broth microdilution method
Bacillus subtilis = test: Antimicrobial activity against Bacillus subtilis MTCC 441 after 24 to 48 hr by broth microdilution method
Vibrio cholerae = test: Antimicrobial activity against Vibrio cholerae MTCC 3906 after 24 to 48 hr by broth microdilution method
Candida albicans = test: Antimicrobial activity against Candida albicans MTCC 227 after 24 to 48 hr by broth microdilution method
Aspergillus fumigatus = test: Antimicrobial activity against Aspergillus fumigatus MTCC 3008 after 24 to 48 hr by broth microdilution method

Molecule	MIC (Clostridium tetani) [µg/mL]	MIC (Salmonella typhi) [µg/mL]	MIC (Streptococcus pneumoniae) [µg/mL]	MIC (Escherichia coli) [µg/mL]	MIC (Bacillus subtilis) [µg/mL]	MIC (Vibrio cholerae) [µg/mL]	MIC (Candida albicans) [µg/mL]	MIC (Aspergillus fumigatus) [µg/mL]
CC1(C)S[C@@H]2[C@H](NC(=O)[C@H](N)c3ccccc3)C(=O)N2[C@H]1C(=O)O [AMPICILLIN]	250 (≈ 715 µM)	100 (≈ 286 µM)	100 (≈ 286 µM)	100 (≈ 286 µM)	250 (≈ 715 µM)	100 (≈ 286 µM)		
COc1ccc2[nH]c(=O)c(C3NC(=S)NC4=C3C(=O)CCC4)cc2c1 (centres undefined)	200 (≈ 563 µM)	125 (≈ 352 µM)	200 (≈ 563 µM)	50 (≈ 141 µM)	200 (≈ 563 µM)	200 (≈ 563 µM)	500 (≈ 1410 µM)	> 1000
O=C1CCCC2=C1C(c1cc3ccccc3[nH]c1=S)NC(=S)N2 (centres undefined)	250 (≈ 732 µM)	200 (≈ 586 µM)	500 (≈ 1460 µM)	250 (≈ 732 µM)	250 (≈ 732 µM)	250 (≈ 732 µM)	250 (≈ 732 µM)	> 1000
O=C1CCCC2=C1C(c1cc3ccccc3[nH]c1=O)NC(=S)N2 (centres undefined)	200 (≈ 615 µM)	500 (≈ 1540 µM)	200 (≈ 615 µM)	100 (≈ 307 µM)	200 (≈ 615 µM)	500 (≈ 1540 µM)	100 (≈ 307 µM)	200 (≈ 615 µM)
CC1(C)CC(=O)C2=C(C1)NC(=S)NC2c1cc2ccccc2[nH]c1=S (centres undefined)	200 (≈ 541 µM)	100 (≈ 271 µM)	500 (≈ 1350 µM)	100 (≈ 271 µM)	250 (≈ 677 µM)	250 (≈ 677 µM)	250 (≈ 677 µM)	500 (≈ 1350 µM)
CC1(C)CC(=O)C2=C(C1)NC(=O)NC2c1cc2ccccc2[nH]c1=O (centres undefined)	200 (≈ 593 µM)	250 (≈ 741 µM)	250 (≈ 741 µM)	100 (≈ 296 µM)	500 (≈ 1480 µM)	250 (≈ 741 µM)	500 (≈ 1480 µM)	500 (≈ 1480 µM)
Cc1ccc2[nH]c(=O)c(C3NC(=S)N(c4ccccc4)C4=C3C(=O)CC(C)(C)C4)cc2c1 (centres undefined)	250 (≈ 564 µM)	500 (≈ 1130 µM)	1000 (≈ 2250 µM)	1000 (≈ 2250 µM)	250 (≈ 564 µM)	250 (≈ 564 µM)	1000 (≈ 2250 µM)	500 (≈ 1130 µM)
COC1=CC(=O)C[C@@H](C)[C@]12Oc1c(Cl)c(OC)cc(OC)c1C2=O [GRISEOFULVIN]							500 (≈ 1420 µM)	100 (≈ 283 µM)
CC1(C)CC(=O)C2=C(C1)NC(=O)NC2c1cc2ccccc2[nH]c1=S (centres undefined)	500 (≈ 1410 µM)	500 (≈ 1410 µM)	250 (≈ 707 µM)	500 (≈ 1410 µM)	500 (≈ 1410 µM)	200 (≈ 566 µM)	100 (≈ 283 µM)	100 (≈ 283 µM)
COc1ccc2[nH]c(=O)c(C3NC(=S)NC4=C3C(=O)CC(C)(C)C4)cc2c1 (centres undefined)	200 (≈ 522 µM)	250 (≈ 652 µM)	200 (≈ 522 µM)	500 (≈ 1300 µM)	200 (≈ 522 µM)	200 (≈ 522 µM)	500 (≈ 1300 µM)	> 1000
Cc1ccc2[nH]c(=O)c(C3NC(=S)NC4=C3C(=O)CC(C)(C)C4)cc2c1 (centres undefined)	100 (≈ 272 µM)	150 (≈ 408 µM)	100 (≈ 272 µM)	250 (≈ 680 µM)	100 (≈ 272 µM)	100 (≈ 272 µM)	> 1000	> 1000
Cc1ccc2[nH]c(=O)c(C3NC(=S)NC4=C3C(=O)CCC4)cc2c1 (centres undefined)	500 (≈ 1470 µM)	500 (≈ 1470 µM)	500 (≈ 1470 µM)	500 (≈ 1470 µM)	500 (≈ 1470 µM)	500 (≈ 1470 µM)	200 (≈ 589 µM)	500 (≈ 1470 µM)
O=C(N[C@H](CO)[C@H](O)c1ccc([N+](=O)[O-])cc1)C(Cl)Cl [CHLORAMPHENICOL]	50 (≈ 155 µM)	50 (≈ 155 µM)	50 (≈ 155 µM)	50 (≈ 155 µM)	50 (≈ 155 µM)	50 (≈ 155 µM)		
O=C1NC2=C(C(=O)CCC2)C(c2cc3ccccc3[nH]c2=O)N1 (centres undefined)	100 (≈ 323 µM)	250 (≈ 808 µM)	100 (≈ 323 µM)	250 (≈ 808 µM)	200 (≈ 647 µM)	500 (≈ 1620 µM)	500 (≈ 1620 µM)	> 1000
O=C(O)c1cn(C2CC2)c2cc(N3CCNCC3)c(F)cc2c1=O [CIPROFLOXACIN]		25 (≈ 75.4 µM)	50 (≈ 151 µM)	25 (≈ 75.4 µM)		25 (≈ 75.4 µM)		
O=C1NC2=C(C(=O)CCC2)C(c2cc3ccccc3[nH]c2=S)N1 (centres undefined)	500 (≈ 1540 µM)	200 (≈ 615 µM)	500 (≈ 1540 µM)	500 (≈ 1540 µM)	500 (≈ 1540 µM)	500 (≈ 1540 µM)	1000 (≈ 3070 µM)	500 (≈ 1540 µM)

Molecule	MIC (Clostridium tetani) [µg/mL]	MIC (Salmonella typhi) [µg/mL]	MIC (Streptococcus pneumoniae) [µg/mL]	MIC (Escherichia coli) [µg/mL]	MIC (Bacillus subtilis) [µg/mL]	MIC (Vibrio cholerae) [µg/mL]	MIC (Candida albicans) [µg/mL]	MIC (Aspergillus fumigatus) [µg/mL]
CC1(C)CC(=O)C2=C(C1)NC(=O)NC2c1cc2cc(Cl)ccc2[nH]c1=O (centres undefined)	100 (≈ 269 µM)	200 (≈ 538 µM)	500 (≈ 1340 µM)	100 (≈ 269 µM)	200 (≈ 538 µM)	500 (≈ 1340 µM)	500 (≈ 1340 µM)	> 1000
Cc1ccc2[nH]c(=O)c(C3NC(=O)NC4=C3C(=O)CC(C)(C)C4)cc2c1 (centres undefined)	100 (≈ 285 µM)	250 (≈ 711 µM)	100 (≈ 285 µM)	100 (≈ 285 µM)	100 (≈ 285 µM)	1000 (≈ 2850 µM)	500 (≈ 1420 µM)	1000 (≈ 2850 µM)
O=C1NC2=C(C(=O)CCC2)C(c2cc3cc(Cl)ccc3[nH]c2=O)N1 (centres undefined)	500 (≈ 1450 µM)	250 (≈ 727 µM)	500 (≈ 1450 µM)	200 (≈ 582 µM)	250 (≈ 727 µM)	100 (≈ 291 µM)	1000 (≈ 2910 µM)	1000 (≈ 2910 µM)
O=C1CCCC2=C1C(c1cc3cc(Cl)ccc3[nH]c1=O)NC(=S)N2 (centres undefined)	250 (≈ 695 µM)	200 (≈ 556 µM)	250 (≈ 695 µM)	100 (≈ 278 µM)	250 (≈ 695 µM)	250 (≈ 695 µM)	500 (≈ 1390 µM)	1000 (≈ 2780 µM)
NYSTATIN							100	100
GENTAMICIN	5	5	0.5	0.05	1	5		
CCn1cc(C(=O)O)c(=O)c2cc(F)c(N3CCNCC3)cc21 [NORFLOXACIN]	50 (≈ 157 µM)	10 (≈ 31.3 µM)	10 (≈ 31.3 µM)	10 (≈ 31.3 µM)	100 (≈ 313 µM)	10 (≈ 31.3 µM)		
Cc1ccc2[nH]c(=O)c(C3NC(=O)NC4=C3C(=O)CCC4)cc2c1 (centres undefined)	200 (≈ 619 µM)	500 (≈ 1550 µM)	100 (≈ 309 µM)	500 (≈ 1550 µM)	500 (≈ 1550 µM)	200 (≈ 619 µM)	1000 (≈ 3090 µM)	1000 (≈ 3090 µM)
Cc1ccc2[nH]c(=O)c(C3NC(=S)N(c4ccccc4)C4=C3C(=O)CCC4)cc2c1 (centres undefined)	250 (≈ 602 µM)	250 (≈ 602 µM)	500 (≈ 1200 µM)	500 (≈ 1200 µM)	500 (≈ 1200 µM)	500 (≈ 1200 µM)	1000 (≈ 2410 µM)	500 (≈ 1200 µM)
COc1ccc2[nH]c(=O)c(C3NC(=O)NC4=C3C(=O)CC(C)(C)C4)cc2c1 (centres undefined)	100 (≈ 272 µM)	150 (≈ 408 µM)	250 (≈ 680 µM)	100 (≈ 272 µM)	250 (≈ 680 µM)	50 (≈ 136 µM)	500 (≈ 1360 µM)	1000 (≈ 2720 µM)
COc1ccc2[nH]c(=O)c(C3NC(=O)NC4=C3C(=O)CCC4)cc2c1 (centres undefined)	500 (≈ 1470 µM)	250 (≈ 737 µM)	250 (≈ 737 µM)	100 (≈ 295 µM)	250 (≈ 737 µM)	500 (≈ 1470 µM)	500 (≈ 1470 µM)	1000 (≈ 2950 µM)
O=C1CCCC2=C1C(c1cc3ccccc3[nH]c1=O)NC(=S)N2c1ccccc1 (centres undefined)	100 (≈ 249 µM)	100 (≈ 249 µM)	150 (≈ 374 µM)	150 (≈ 374 µM)	250 (≈ 623 µM)	200 (≈ 498 µM)	500 (≈ 1250 µM)	250 (≈ 623 µM)
CC1(C)CC(=O)C2=C(C1)N(c1ccccc1)C(=S)NC2c1cc2ccccc2[nH]c1=O (centres undefined)	250 (≈ 582 µM)	200 (≈ 466 µM)	500 (≈ 1160 µM)	250 (≈ 582 µM)	500 (≈ 1160 µM)	500 (≈ 1160 µM)	250 (≈ 582 µM)	1000 (≈ 2330 µM)
CC1(C)CC(=O)C2=C(C1)NC(=S)NC2c1cc2ccccc2[nH]c1=O (centres undefined)	500 (≈ 1410 µM)	150 (≈ 424 µM)	500 (≈ 1410 µM)	125 (≈ 354 µM)	500 (≈ 1410 µM)	500 (≈ 1410 µM)	500 (≈ 1410 µM)	500 (≈ 1410 µM)
CC1(C)CC(=O)C2=C(C1)NC(=S)NC2c1cc2cc(Cl)ccc2[nH]c1=O (centres undefined)	250 (≈ 645 µM)	25 (≈ 64.5 µM)	50 (≈ 129 µM)	125 (≈ 322 µM)	50 (≈ 129 µM)	50 (≈ 129 µM)	500 (≈ 1290 µM)	1000 (≈ 2580 µM)
